Assay in all cases: inhibition of tumour cell growth, NCI panel, 48 h
Test [1] deals with M14.
Test [2] relates to SK-MEL-2.
Test [3] deals with SF-268.
Test [4] has as its system SN12C.
For test [5], the system named is MCF7.
Test [6] concerns HOP-62.
Test [7] concerns SK-MEL-5.
The subject of test [8] is HCT-116.
For test [9], the system named is 786-0.
For test [10], the system named is DU-145.
The subject of test [11] is HOP-92.
For test [12], the system named is UO-31.
Test [13] concerns SK-OV-3.
Test [14] deals with NCI-H460.
The test system of test [15] is SR.
The test system of test [16] is SF-295.
The test system of test [17] is MDA-N.
In test [18] the test system is CAKI-1.
In test [19] the test system is A549.
For test [20], the system named is T47D.

We go through ten compounds from ChEMBL document CHEMBL1201862, “PubChem BioAssay data set” (2004).

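48-hour exposure; five concentrations; linearly interpolated endpoints. At the GI50, growth is halved.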 Activity calls are given as the source filed them. Rule as the data show it: active = GI50 up to about 1.1 µM and inactive = higher. Where only a bound is given, the exact number is not on record here.

As for `CC(C)=CCc1c2c(c3occ(-c4ccc(O)c(O)c4)c(=O)c3c1O)C=CC(C)(C)O2` [POMIFERIN], the GI50 in test [1] was 1.68 µM (inactive); in [2], 2.6 µM (inactive); in test [3] it was 1.87 µM (inactive); in test [4] it was 1.58 µM (inactive); in test [5], 1.34 µM (inactive); in [6], 1.89 µM (inactive). For the same compound, the GI50 is 2.96 µM (inactive) in [7]; 1.85 µM (inactive) in test [8]; 1.51 µM (inactive) in [9]; 3.47 µM (inactive) in test [10]; 2.07 µM (inactive) in test [11]; 1.54 µM (inactive) in test [12]. Moreover, the GI50 was 6.71 µM (inactive) in test [13]; 1.64 µM (inactive) in [14]; 0.204 µM (active) in [15]; 3.77 µM (inactive) in test [16]; 1.7 µM (inactive) in [17]; 1.55 µM (inactive) in test [18]. In addition, the GI50 in test [19] is 2.55 µM (inactive); in [20] it was 1.86 µM (inactive).

For the compound `CC1=Cc2ccc(C)cc2C(=O)C1=O`, the GI50 in test [1] is 4.81 µM (inactive); in [2], 19.9 µM (inactive); in [3], 8.67 µM (inactive); in [4], 5.04 µM (inactive); in test [5], 6.97 µM (inactive); in [6], 21.3 µM (inactive). Further, the GI50 was 20.4 µM (inactive) in test [7]; 5.47 µM (inactive) in [8]; 1.85 µM (inactive) in test [9]; 16.8 µM (inactive) in test [10]; 6.18 µM (inactive) in [11]; 1.64 µM (inactive) in [12]. Besides, the GI50 is 13.9 µM (inactive) in [13]; 19.8 µM (inactive) in test [14]; 1.58 µM (inactive) in [15]; 18.5 µM (inactive) in test [16]; 4.18 µM (inactive) in test [17]; 5.07 µM (inactive) in [18]. Further, the GI50 in [19] is 23.7 µM (inactive); in [20], 1.82 µM (inactive).

For the compound `CCCCCC1CC=CC(=O)O1` (stereo not given), the GI50 in test [1] is 12 µM (inactive); in test [2], 6.84 µM (inactive); in test [3] it was 10.6 µM (inactive); in test [4], 6.73 µM (inactive); in test [5], 6.52 µM (inactive); in test [6] it was 4.36 µM (inactive). The GI50 in test [7] is 12.4 µM (inactive); in test [8] it was 2.04 µM (inactive); in test [9], 3.85 µM (inactive); in test [10] it was 17.4 µM (inactive); in test [11], 1.2 µM (inactive); in test [12] it was 8.89 µM (inactive). Also, the GI50 was 7.53 µM (inactive) in test [13]; 11 µM (inactive) in test [14]; 3.39 µM (inactive) in test [15]; 11.5 µM (inactive) in test [16]; 6.15 µM (inactive) in test [17]; 3.72 µM (inactive) in test [18]. For the same compound, the GI50 was 6.81 µM (inactive) in test [19] and 11.4 µM (inactive) in [20].

Turning to `O=C(N/N=C1/C(=O)c2c3ccccc3cc3cccc1c23)c1ccccc1`, the GI50 in test [1] was 48.4 µM (inactive); in test [2], 33.2 µM (inactive); in [3], 30 µM (inactive); in test [4], 37.8 µM (inactive); in [5], 30.4 µM (inactive); in test [6], 19.5 µM (inactive). The GI50 was 23.6 µM (inactive) in test [7]; 30.8 µM (inactive) in [8]; 19.1 µM (inactive) in [9]; 4.49 µM (inactive) in [10]; 51.9 µM (inactive) in test [11]; 30.9 µM (inactive) in test [12]. The GI50 is 31.8 µM (inactive) in test [13]; 16.9 µM (inactive) in [14]; > 58.6 µM (inactive) in test [15]; 20.5 µM (inactive) in [16]; 39.4 µM (inactive) in [17]; 26.4 µM (inactive) in [18]. For the same compound, the GI50 in test [19] was 12.2 µM (inactive); in test [20], 3.69 µM (inactive).

Turning to `CCCCCCCCCCCCCCCCCCOCC(O)COP(=O)(O)OCC1OC(n2cc(F)c(=O)[nH]c2=O)CC1O` (stereo not given), the GI50 in test [1] was 2.96 µM (inactive); in test [2], 21.4 µM (inactive); in test [3], 0.236 µM (active); in test [4], 5.81 µM (inactive); in [5], 0.492 µM (active); in test [6], 0.15 µM (active). The GI50 in [7] was 4.01 µM (inactive); in test [8] it was 1.29 µM (inactive); in [9] it was 1.22 µM (inactive); in test [10], 1.15 µM (inactive); in [11], 4.02 µM (inactive); in test [12], 1.16 µM (inactive). Also, the GI50 in test [13] was 12.8 µM (inactive); in test [14], 0.678 µM (active); in test [15] it was 0.533 µM (active); in [16], 0.682 µM (active); in [17], 13.4 µM (inactive); in test [18] it was 2.16 µM (inactive). Also, the GI50 in [19] is 0.51 µM (active); in test [20], 2.58 µM (inactive).

In the case of `CC(C)NCCCNc1c2ccccc2nc2cccc([N+](=O)[O-])c12`, the GI50 was 0.0113 µM (active) in test [1]; 0.0157 µM (active) in [2]; 0.00757 µM (active) in [3]; 0.00957 µM (active) in [4]; < 0.001 µM (active) in [5]; 0.0279 µM (active) in test [6]. The GI50 was 0.00354 µM (active) in test [7]; 0.0262 µM (active) in test [8]; 0.00445 µM (active) in test [9]; 0.0065 µM (active) in [10]; 0.00389 µM (active) in test [11]; 0.123 µM (active) in test [12]. For the same compound, the GI50 in test [13] is 0.0566 µM (active); in test [14], 0.00227 µM (active); in test [15], < 0.001 µM (active); in test [16], 0.00746 µM (active); in test [17], 0.0138 µM (active); in [18] it was 0.029 µM (active). Besides, the GI50 in [19] is 0.00358 µM (active); in test [20], 0.00851 µM (active).

Regarding `O=C1C2C3C4C1C1C2[C@H](OCc2ccccc2)C3C1[C@H]4OCc1ccccc1` (stereo not given in full), the GI50 was 51.8 µM (inactive) in test [1]; 51.2 µM (inactive) in test [2]; 60.5 µM (inactive) in test [3]; > 100 µM (inactive) in [4]; > 100 µM (inactive) in [5]; 73.3 µM (inactive) in [6]. Besides, the GI50 in [7] is 36.3 µM (inactive); in [8], 50.5 µM (inactive); in test [9] it was > 100 µM (inactive); in test [10], > 100 µM (inactive); in test [11], 17 µM (inactive); in [12] it was 55.8 µM (inactive). Further, the GI50 in test [13] was > 100 µM (inactive); in [14], 49.8 µM (inactive); in test [15], 19.1 µM (inactive); in [16], > 100 µM (inactive); in test [17], > 100 µM (inactive); in [18], 41.7 µM (inactive). Besides, the GI50 is 40.9 µM (inactive) in test [19] and 34.4 µM (inactive) in test [20].

As to `CN1CCN(CCCCN2c3ccccc3Sc3cc(N=[N+]=[N-])ccc32)CC1`, the GI50 in test [1] was 1.72 µM (inactive); in test [2], 2.09 µM (inactive); in [3], 6.19 µM (inactive); in test [4] it was 2.31 µM (inactive); in test [5], 1.99 µM (inactive); in test [6], 2.49 µM (inactive). Further, the GI50 in test [7] is 1.57 µM (inactive); in test [8], 1.62 µM (inactive); in test [9], 1.62 µM (inactive); in [10], 4.21 µM (inactive); in test [11] it was 1.94 µM (inactive); in [12], 0.586 µM (active). Further, the GI50 in test [13] was 8.49 µM (inactive); in test [14] it was 1.94 µM (inactive); in test [15], 5.5 µM (inactive); in test [16], 2.18 µM (inactive); in test [17] it was 3.41 µM (inactive); in test [18] it was 2.01 µM (inactive). The GI50 was 1.94 µM (inactive) in test [19] and 9.23 µM (inactive) in [20].

`CC/C=C\C/C=C\C/C=C\CCCCCCCC(=O)OC(COC(=O)CCCCCCCCCCCCCCCCC)COC1OC(CO)C(O)C(O)C1O` (stereo not given): the GI50 in [1], in test [2], in test [3], in test [4], in test [5] and in test [6] was > 25 µM (inactive) each time. Moreover, the GI50 in [7], in [8], in test [9], in [10], in test [11] and in [12] was > 25 µM (inactive) in each case. Besides, the GI50 in test [13], in test [14], in test [15], in [16], in test [17] and in test [18] was > 25 µM (inactive) throughout. Besides, the GI50 in [19] and in test [20] was > 25 µM (inactive) throughout.

Take `COc1cccc(C2CC(C)(O)Oc3cc4c(cc32)OCO4)c1` (stereo not given): the GI50 in test [1] is 12.5 µM (inactive); in test [2], 9.53 µM (inactive); in test [3], 30.6 µM (inactive); in [4] it was 27.3 µM (inactive); in test [5], 17.9 µM (inactive); in test [6] it was 21.1 µM (inactive). Also, the GI50 was 14.2 µM (inactive) in [7]; 9.44 µM (inactive) in test [8]; 33.7 µM (inactive) in [9]; 31.3 µM (inactive) in test [10]; 26.7 µM (inactive) in test [11]; 23.3 µM (inactive) in [12]. In addition, the GI50 was 16.9 µM (inactive) in test [13]; 16.1 µM (inactive) in [14]; 4.58 µM (inactive) in test [15]; 17.8 µM (inactive) in test [16]; 2.82 µM (inactive) in test [17]; 29 µM (inactive) in test [18]. The GI50 was 31 µM (inactive) in test [19] and 27.8 µM (inactive) in test [20].
